How the values were obtained:
[1] = test system: Human immunodeficiency virus 1; test: Antiviral activity against HIV1 JR-FL in human HeLa cells expressing CD4, CCR5 assessed as inhibition of integration of viral DNA into cell genome after 3 days by luciferase reporter gene assay; type: functional, organism-based; conditions: Human immunodeficiency virus 1, JR-FL, 72 h
[2] = Cytotoxicity against human HeLa cells expressing CD4, CCR5 after 3 days; type: cell-based; conditions: HeLa cells expressing CD4 and CCR5
Rattus norvegicus [3] = test: Oral bioavailability in rat at 5 mg/kg; type: ADME, organism-based; conditions: in vivo
Rattus norvegicus [4] = test: (§1) AUC in rat at 5 mg/kg, po; type: ADME, organism-based, Plasma; set-up: dose 5 mg/kg, route oral; conditions: in vivo
[5] = as §1; type: ADME, organism-based, Plasma; set-up: dose 5 mg/kg, route oral; conditions: plasma

| EC50 [1] [nM] | F (Rattus norvegicus [3]) [%] | AUC (Rattus norvegicus [4]) [µM·h] | AUC [5] [µM·h] | Compound | CC50 at 72 h [2] [nM] |
| --- | --- | --- | --- | --- | --- |
| 2.48 |  |  |  | CNC(=O)c1ccnc2c(C(=O)C(=O)N3CCN(C(=O)c4ccccc4)C[C@H]3C)c[nH]c12 | > 300000 |
| 0.04 |  |  |  | Cc1csc(-c2ccnc3c(C(=O)C(=O)N4CCN(C(=O)c5ccccc5)C[C@H]4C)c[nH]c23)c1 | 48900 |
| 0.31 |  |  |  | C[C@@H]1CN(C(=O)C(=O)c2c[nH]c3c(-n4nc5ccccc5n4)ccnc23)CCN1C(=O)c1ccccc1 | 74000 |
| 4.9 |  |  |  | C[C@@H]1CN(C(=O)c2ccccc2)CCN1C(=O)C(=O)c1c[nH]c2ccccc12 | 195000 |
| 1.59 |  |  |  | Cc1cnn(-c2ccnc3c(C(=O)C(=O)N4CCN(C(=O)c5ccccc5)[C@H](C)C4)c[nH]c23)c1 | > 150000 |
| 22 |  |  |  | C[C@@H]1CN(C(=O)c2ccccc2)CCN1C(=O)C(=O)c1c[nH]c2cnccc12 | > 300000 |
| 0.34 | 60 | 5.6 |  | C[C@@H]1CN(C(=O)C(=O)c2c[nH]c3c(-c4ncco4)ccnc23)CCN1C(=O)c1ccccc1 | 135000 |
| 1.7 |  |  |  | C[C@@H]1CN(C(=O)c2ccccc2)CCN1C(=O)C(=O)c1c[nH]c2ncccc12 | 280000 |
| 0.68 |  |  |  | C[C@@H]1CN(C(=O)c2ccccc2)CCN1C(=O)C(=O)c1c[nH]c2c(-c3cncnc3)ccnc12 | 35300 |
| 61.1 |  |  |  | CON(C)C(=O)c1ccnc2c(C(=O)C(=O)N3CCN(C(=O)c4ccccc4)C[C@H]3C)c[nH]c12 | > 300000 |
| 1.6 |  |  |  | C[C@@H]1CN(C(=O)c2ccccc2)CCN1C(=O)C(=O)c1c[nH]c2cccnc12 | > 300000 |
| 7.37 |  |  |  | COc1ccnc2c(C(=O)C(=O)N3CCN(C(=O)c4ccccc4)C[C@H]3C)cn(C)c12 | > 300000 |
| 46.3 |  |  |  | Cc1ccnc2c(C(=O)C(=O)N3CCN(C(=O)c4ccccc4)CC3)c[nH]c12 | > 300000 |
| 0.71 |  |  |  | Cc1cnc(-c2ccnc3c(C(=O)C(=O)N4CCN(C(=O)c5ccccc5)[C@H](C)C4)c[nH]c23)s1 | 28000 |
| 0.64 |  |  |  | O=C(C(=O)N1CCN(C(=O)c2ccccc2)CC1)c1c[nH]c2c(-n3cncn3)ccnc12 | > 300000 |
| 0.1 |  |  |  | C[C@@H]1CN(C(=O)c2ccccc2)CCN1C(=O)C(=O)c1c[nH]c2c(-c3cc4ccccc4s3)ccnc12 | 170000 |
| 0.29 |  |  |  | CC(=O)c1ccc(-c2ccnc3c(C(=O)C(=O)N4CCN(C(=O)c5ccccc5)CC4)c[nH]c23)s1 | 268000 |
| 0.02 |  |  |  | C[C@@H]1CN(C(=O)c2ccccc2)CCN1C(=O)C(=O)c1c[nH]c2c(-c3cccs3)ccnc12 | > 300000 |
| 0.21 |  |  |  | O=C(C(=O)N1CCN(C(=O)c2ccccc2)CC1)c1c[nH]c2c(-n3nc4ccccc4n3)ccnc12 | 124000 |
| 0.02 |  |  |  | Cc1csc(-c2ccnc3c(C(=O)C(=O)N4CCN(C(=O)c5ccccc5)CC4)c[nH]c23)c1 | 85000 |
| 12.3 |  |  |  | COc1ccnc2c(C(=O)C(=O)N3CCN(C(=O)c4ccccc4)CC3)c[nH]c12 | > 300000 |

| EC50 [1] [nM] | F (Rattus norvegicus [3]) [%] | AUC (Rattus norvegicus [4]) [µM·h] | AUC [5] [µM·h] | Compound | CC50 at 72 h [2] [nM] |
| --- | --- | --- | --- | --- | --- |
| 0.18 |  |  |  | C[C@@H]1CN(C(=O)c2ccccc2)CCN1C(=O)C(=O)c1c[nH]c2c(-c3ccsc3)ccnc12 | 94500 |
| 0.59 |  |  |  | Cc1ncn(-c2ccnc3c(C(=O)C(=O)N4CCN(C(=O)c5ccccc5)[C@H](C)C4)c[nH]c23)n1 | > 300000 |
| 3.38 |  |  |  | C[C@@H]1CN(C(=O)c2ccccc2)CCN1C(=O)C(=O)c1c[nH]c2c(C(=O)O)ccnc12 | > 300000 |
| 7.4 |  |  |  | COc1cccc(-c2ccnc3c(C(=O)C(=O)N4CCN(C(=O)c5ccccc5)CC4)c[nH]c23)n1 | 174000 |
| 0.19 |  |  |  | Cc1csc(-c2ccnc3c(C(=O)C(=O)N4CCN(C(=O)c5ccccc5)[C@H](C)C4)c[nH]c23)n1 | 30000 |
| 0.24 |  |  |  | C[C@@H]1CN(C(=O)C(=O)c2c[nH]c3c(-c4cccs4)ccnc23)CCN1C(=O)c1ccccc1 | 168000 |
| 0.31 | 41 | 1.3 |  | C[C@@H]1CN(C(=O)C(=O)c2c[nH]c3c(-c4nccs4)ccnc23)CCN1C(=O)c1ccccc1 | 35000 |
| 0.8 |  |  |  | COc1cccc2[nH]cc(C(=O)C(=O)N3CCN(C(=O)c4ccccc4)C[C@H]3C)c12 | 250000 |
| 23.6 |  |  |  | O=C(C(=O)N1CCN(C(=O)c2ccccc2)CC1)c1c[nH]c2c(-n3nnc4ccccc43)ccnc12 | 246000 |
| 0.21 |  |  |  | Cc1csc(-c2ccnc3c(C(=O)C(=O)N4CCN(C(=O)c5ccccc5)[C@H](C)C4)c[nH]c23)c1 | 123000 |
| 1 |  |  | 1.3 | COc1ccnc2[nH]cc(C(=O)C(=O)N3CCN(C(=O)c4ccccc4)C[C@H]3C)c12 | > 300000 |
| 11.6 |  |  |  | C[C@@H]1CN(C(=O)C(=O)c2c[nH]c3c(Cl)ccnc23)CCN1C(=O)c1ccccc1 | 300000 |
| 0.2 |  |  |  | Cc1csc(-c2ccnc3c(C(=O)C(=O)N4CCN(C(=O)c5ccccc5)CC4)c[nH]c23)n1 | 23000 |
| 0.88 |  |  |  | O=C(C(=O)N1CCN(C(=O)c2ccccc2)CC1)c1c[nH]c2c(-n3ccnn3)ccnc12 | > 300000 |
| 5.34 |  |  |  | C[C@@H]1CN(C(=O)C(=O)c2c[nH]c3c(-n4nnc5ccccc54)ccnc23)CCN1C(=O)c1ccccc1 | 71000 |
| 0.32 |  |  |  | COc1ccc(-c2ccnc3c(C(=O)C(=O)N4CCN(C(=O)c5ccccc5)C[C@H]4C)c[nH]c23)cc1 | > 300000 |
| 580 |  |  |  | C[C@@H]1CN(C(=O)c2ccccc2)CCN1C(=O)C(=O)c1c[nH]c2ccncc12 | > 300000 |
| 1.3 |  |  |  | COc1cncc2[nH]cc(C(=O)C(=O)N3CCN(C(=O)c4ccccc4)C[C@H]3C)c12 | 6000 |
| 1.22 |  |  |  | C[C@@H]1CN(C(=O)c2ccccc2)CCN1C(=O)C(=O)c1c[nH]c2c(Cl)ccnc12 | > 300000 |
| 0.21 |  |  |  | O=C(C(=O)N1CCN(C(=O)c2ccccc2)CC1)c1c[nH]c2c(-c3nccs3)ccnc12 | 150000 |
| 0.52 |  |  |  | Cc1cnc(-c2ccnc3c(C(=O)C(=O)N4CCN(C(=O)c5ccccc5)CC4)c[nH]c23)s1 | 251000 |

| EC50 [1] [nM] | F (Rattus norvegicus [3]) [%] | AUC (Rattus norvegicus [4]) [µM·h] | AUC [5] [µM·h] | Compound | CC50 at 72 h [2] [nM] |
| --- | --- | --- | --- | --- | --- |
| 0.32 | 65 | 9.6 |  | O=C(C(=O)N1CCN(C(=O)c2ccccc2)CC1)c1c[nH]c2c(-n3nccn3)ccnc12 | > 300000 |
| 0.89 |  |  |  | O=C(C(=O)N1CCN(C(=O)c2ccccc2)CC1)c1c[nH]c2c(-n3cccn3)ccnc12 | > 300000 |
| 0.09 |  |  |  | O=C(C(=O)N1CCN(C(=O)c2ccccc2)CC1)c1c[nH]c2c(-c3cncs3)ccnc12 | > 300000 |
| 0.18 |  |  |  | C[C@@H]1CN(C(=O)c2ccccc2)CCN1C(=O)C(=O)c1c[nH]c2c(-c3ncco3)ccnc12 | > 300000 |
| 3.4 |  |  |  | Cc1csc(NC(=O)c2ccnc3c(C(=O)C(=O)N4CCN(C(=O)c5ccccc5)C[C@H]4C)c[nH]c23)n1 | > 300000 |
| 0.39 |  |  |  | O=C(C(=O)N1CCN(C(=O)c2ccccc2)CC1)c1c[nH]c2c(-c3ncco3)ccnc12 | > 300000 |
| 0.44 | 78 | 3.3 |  | C[C@@H]1CN(C(=O)C(=O)c2c[nH]c3c(-n4nccn4)ccnc23)CCN1C(=O)c1ccccc1 | 300000 |
| 0.1 |  |  |  | C[C@@H]1CN(C(=O)c2ccccc2)CCN1C(=O)C(=O)c1c[nH]c2c(-c3nccs3)ccnc12 | > 300000 |
| 0.27 |  |  |  | C[C@@H]1CN(C(=O)c2ccccc2)CCN1C(=O)C(=O)c1c[nH]c2c(-c3cnccn3)ccnc12 | 15300 |
| 18.4 |  |  |  | O=C(C(=O)N1CCN(C(=O)c2ccccc2)CC1)c1c[nH]c2c(Cl)ccnc12 | > 300000 |
| 0.63 |  |  |  | COc1ccnc2c(C(=O)C(=O)N3CCN(C(=O)c4ccccc4)C[C@H]3C)c[nH]c12 | > 300000 |
| 0.43 |  |  |  | C[C@@H]1CN(C(=O)c2ccccc2)CCN1C(=O)C(=O)c1c[nH]c2c(C(=O)Nc3nccs3)ccnc12 | > 300000 |
| 0.93 |  |  |  | O=C(C(=O)N1CCN(C(=O)c2ccccc2)CC1)c1c[nH]c2c(-c3ccccn3)ccnc12 | 231000 |
| 1.71 |  |  |  | O=C(C(=O)N1CCN(C(=O)c2ccccc2)CC1)c1c[nH]c2c(-c3cnccn3)ccnc12 | > 300000 |
| 10.6 |  |  |  | O=C(C(=O)N1CCN(C(=O)c2ccccc2)CC1)c1c[nH]c2c(-n3nnc4cccnc43)ccnc12 | > 300000 |
| 0.46 |  |  |  | Cc1ccn(-c2ccnc3c(C(=O)C(=O)N4CCN(C(=O)c5ccccc5)[C@H](C)C4)c[nH]c23)n1 | 300000 |
| 1.05 |  |  |  | Cc1noc(C)c1-c1ccnc2c(C(=O)C(=O)N3CCN(C(=O)c4ccccc4)C[C@H]3C)c[nH]c12 | > 300000 |
| 10.8 |  |  |  | Cc1ncnn1-c1ccnc2c(C(=O)C(=O)N3CCN(C(=O)c4ccccc4)[C@H](C)C3)c[nH]c12 | > 300000 |
| 3.06 |  |  |  | Cc1ccnc2c(C(=O)C(=O)N3CCN(C(=O)c4ccccc4)C[C@H]3C)c[nH]c12 | > 300000 |
